Experimental data reported in patent publication US12606548B2, “Fungicidal oxadiazoles” (FMC CORPORATION, priority 2019, dated 2026).
Marks after values point to notes of the source that are not given here.

Experiments:
Type in all cases: in vivo
[1] = system: Puccinia recondita f. sp. tritici; experiment: Test C: test suspension sprayed on wheat seedlings, inoculated next day with Puccinia recondita f. sp. tritici (wheat leaf rust), visual disease rating; details: for Test C rating (% disease control): relative to the controls
How it was run: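 Wheat seedlings received a run-off spray of test suspension (ppm rate as listed; acetone/water 50/50, 250 ppm PEG400 surfactant). Leaf rust spore inoculation followed one day later, then 24 h at 20° C in saturated air and 6 days at 20° C before disease was scored visually.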

[2] = system: Phakopsora pachyrhizi; experiment: Test A: test suspension sprayed on soybean seedlings, inoculated next day with Phakopsora pachyrhizi (Asian soybean rust), visual disease rating; details: for Test A rating (% disease control): relative to the controls
How it was run: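 Compounds first dissolved in acetone (3% of final volume), then suspended in acetone/water 50/50 with 250 ppm PEG400 and sprayed to run-off on soybean seedlings at the stated ppm rate. Inoculated next day with P. pachyrhizi spores; 24 h saturated atmosphere at 22 °C, then 8 days in growth chamber at 22 °C before visual disease rating.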

[3] = system: Zymoseptoria tritici; experiment: Test B: test suspension sprayed on wheat seedlings, inoculated next day with Zymoseptoria tritici (wheat leaf blotch), visual disease rating; details: for Test B rating (% disease control): relative to the controls
Text: General protocol for preparing test suspensions for Tests A-C: the test compounds were first dissolved in acetone in an amount equal to 3% of the final volume and then suspended at the desired concentration (in ppm) in acetone and purified water (50/50 mix by volume) containing 250 ppm of the surfactant PEG400 (polyhydric alcohol esters). The resulting test suspensions were then used in Tests A-C.
The test suspension was sprayed to the point of run-off on wheat seedlings. The following day the seedlings were inoculated with a spore suspension of Zymoseptoria tritici (the causal agent of wheat leaf blotch) and incubated in a saturated atmosphere at 24° C., for 48 h, and then moved to a growth chamber at 20° C., for 17 days, after which time visual disease ratings were made.
Results for Tests A-C are given in Table A. In the Table, a rating of 100 indicates 100% disease control and a rating of 0 indicates no disease control (relative to the controls). A dash (-) indicates the compound was not tested. The test suspensions were sprayed at the concentration listed in the column “Rate in ppm”, unless otherwise indicated. An asterisk “*” next to the rating indicates a 250 ppm test suspension was used, a double asterisk “**” next to the rating indicates a 100 ppm test suspension was used, and a triple asterisk “***” next to the rating indicates a 50 ppm test suspension was used.

[4] = 100 ppm test suspension (double asterisk **)

Row | Compound | Test C rating (% disease control) ([1]; Rate 10 ppm test suspension) | Test A rating (% disease control) ([2]; Rate 10 ppm test suspension) | Test B rating (% disease control) ([3]; 250 ppm test suspension) | also measured
1 | COC(=O)c1coc(Cc2ccc(-c3noc(C(F)(F)F)n3)cc2)n1 [Compound 490] | 74% | 100% | 94* % | –
2 | ON=Cc1cnn(Cc2ccc(-c3noc(C(F)(F)F)n3)cc2)c1 [compound 20] | – | – | – | Test C disease control rating ([1]; 250 ppm test suspension): 100%; Test A disease control rating ([2]; 250 ppm test suspension): 100%; Test B disease control rating ([3]; 250 ppm test suspension): 99%
3 | COC(=O)c1cnn(Cc2ccc(-c3noc(C(F)(F)F)n3)cc2)c1 [compound 21] | – | – | – | Test C disease control rating ([1]; 10 ppm test suspension): 100%; Test A disease control rating ([2]; 10 ppm test suspension): 100%; Test B disease control rating [3, 4]: 97** %
4 | N#CCOC(=O)c1cnn(Cc2ccc(-c3noc(C(F)(F)F)n3)cc2)c1 [compound 57] | – | – | – | Test C disease control rating ([1]; 10 ppm test suspension): 100%; Test A disease control rating ([2]; 10 ppm test suspension): 100%; Test B disease control rating [3, 4]: 99** %
5 | CCCOC(=O)c1cnn(Cc2ccc(-c3noc(C(F)(F)F)n3)s2)c1 [compound 198] | – | – | – | Test C disease control rating ([1]; 10 ppm test suspension): 99%; Test A disease control rating ([2]; 10 ppm test suspension): 100%; Test B disease control rating [3, 4]: 94** %
6 | O=C(NCC(F)F)c1coc(Cc2ccc(-c3noc(C(F)(F)F)n3)cc2)n1 [compound 225] | – | – | – | Test C disease control rating ([1]; 10 ppm test suspension): 100%; Test A disease control rating ([2]; 10 ppm test suspension): 100%; Test B disease control rating ([3]; 250 ppm test suspension): 99* %
7 | N#CCCNC(=O)c1coc(Cc2ccc(-c3noc(C(F)(F)F)n3)cc2)n1 [compound 229] | – | – | – | Test C disease control rating ([1]; 10 ppm test suspension): 100%; Test A disease control rating ([2]; 10 ppm test suspension): 100%; Test B disease control rating ([3]; 250 ppm test suspension): 94* %
8 | COCCNC(=O)c1coc(Cc2ccc(-c3noc(C(F)(F)F)n3)cc2)n1 [compound 257] | – | – | – | Test C disease control rating ([1]; 10 ppm test suspension): 100%; Test A disease control rating ([2]; 10 ppm test suspension): 100%; Test B disease control rating ([3]; 250 ppm test suspension): 99* %
9 | O=C(NCCn1cccn1)c1coc(Cc2ccc(-c3noc(C(F)(F)F)n3)cc2)n1 [compound 264] | – | – | – | Test C disease control rating ([1]; 10 ppm test suspension): 99%; Test A disease control rating ([2]; 10 ppm test suspension): 100%; Test B disease control rating ([3]; 250 ppm test suspension): 99* %
10 | CCOC(=O)c1cnn(Cc2ccc(-c3noc(C(F)(F)F)n3)cc2)c1 [compound 276] | – | – | – | Test C disease control rating ([1]; 50 ppm test suspension): 80%; Test A disease control rating ([2]; 50 ppm test suspension): 100%; Test B disease control rating ([3]; 250 ppm test suspension): 35* %
11 | O=C(NCC(F)(F)F)c1coc(Cc2ccc(-c3noc(C(F)(F)F)n3)cc2)n1 [compound 316] | – | – | – | Test C disease control rating ([1]; 10 ppm test suspension): 100%; Test A disease control rating ([2]; 10 ppm test suspension): 100%; Test B disease control rating ([3]; 250 ppm test suspension): 5* %
12 | O=C(NCCC(F)(F)F)c1coc(Cc2ccc(-c3noc(C(F)(F)F)n3)cc2)n1 [compound 330] | – | – | – | Test C disease control rating ([1]; 10 ppm test suspension): 100%; Test A disease control rating ([2]; 10 ppm test suspension): 100%; Test B disease control rating ([3]; 250 ppm test suspension): 96* %
13 | CCOC(=O)c1cnn(COc2ccc(-c3noc(C(F)(F)F)n3)cc2)c1 [compound 376] | – | – | – | Test C disease control rating ([1]; 10 ppm test suspension): 68%; Test A disease control rating ([2]; 10 ppm test suspension): 100%; Test B disease control rating ([3]; 250 ppm test suspension): 49* %
14 | N#CCNC(=O)c1csc(Cc2ccc(-c3noc(C(F)(F)F)n3)cc2)n1 [compound 393] | 100% | 100% | 94* % | –
15 | COCCNC(=O)c1csc(Cc2ccc(-c3noc(C(F)(F)F)n3)cc2)n1 [compound 394] | 100% | 100% | 99* % | –
16 | O=C(NC1CCC(F)(F)CC1)c1coc(Cc2ccc(-c3noc(C(F)(F)F)n3)cc2)n1 [compound 395] | 97% | 95% | 0* % | –
17 | O=C(NCCn1cccn1)c1csc(Cc2ccc(-c3noc(C(F)(F)F)n3)cc2)n1 [compound 396] | 100% | 100% | 28* % | –
18 | O=C(NCCC(F)(F)F)c1csc(Cc2ccc(-c3noc(C(F)(F)F)n3)cc2)n1 [compound 397] | 98% | 100% | 82* % | –
19 | O=C(NCCCC(F)(F)F)c1coc(Cc2ccc(-c3noc(C(F)(F)F)n3)cc2)n1 [compound 398] | 97% | 100% | 80* % | –
20 | O=C(NCC=C(Cl)Cl)c1coc(Cc2ccc(-c3noc(C(F)(F)F)n3)cc2)n1 [compound 399] | 99% | 100% | 10* % | –

Row | Compound | Test C rating (% disease control) ([1]; Rate 10 ppm test suspension) | Test A rating (% disease control) ([2]; Rate 10 ppm test suspension) | Test B rating (% disease control) ([3]; 250 ppm test suspension) | also measured
21 | O=C(NCCF)c1coc(Cc2ccc(-c3noc(C(F)(F)F)n3)cc2)n1 [compound 400] | 100% | 100% | 99* % | –
22 | O=C(NCCOC(F)(F)F)c1coc(Cc2ccc(-c3noc(C(F)(F)F)n3)cc2)n1 [compound 401] | 99% | 100% | 77* % | –
23 | O=C(c1coc(Cc2ccc(-c3noc(C(F)(F)F)n3)cc2)n1)N1CCC(F)(F)C1 [compound 402] | 90% | 100% | 96* % | –
24 | CCOC(=O)c1csc(COc2ccc(-c3noc(C(F)(F)F)n3)cc2)n1 [compound 404] | 68% | 0% | 0* % | –
25 | CN(C)C(=O)C1=NOC(CN2CCC(c3noc(C(F)(F)F)n3)CC2)C1 (stereo not drawn) [compound 426] | – | – | 9* % | Test C rating (% disease control) ([1]; Rate 250 ppm test suspension): 0%; Test A rating (% disease control) ([2]; Rate 250 ppm test suspension): 0%
26 | O=C(c1ccc(Cc2ccc(-c3noc(C(F)(F)F)n3)cc2)o1)C(F)(F)F [compound 450] | 0% | 94% | 41* % | –
27 | FC(F)(F)c1nc(-c2ccc(Cc3ccccc3)cc2)no1 [compound 451] | 0% | 99% | 8* % | –
28 | COC(=O)c1cnc(Oc2ccc(-c3noc(C(F)(F)F)n3)cc2)s1 [compound 452] | 0% | 81% | 59* % | –
29 | CCOC(=O)c1ccc(Cc2ccc(-c3noc(C(F)(F)F)n3)cc2)cc1 [compound 453] | 0% | 92% | 50* % | –
30 | COC(=O)c1coc(Cc2ccc(-c3noc(C(F)(F)F)n3)cc2)c1 [compound 456] | 68% | 100% | 65* % | –
31 | CCOC(=O)c1cnn(CN2CCC(c3noc(C(F)(F)F)n3)CC2)c1 [compound 458] | – | – | 0* % | Test C rating (% disease control) ([1]; Rate 50 ppm test suspension): 0%; Test A rating (% disease control) ([2]; Rate 50 ppm test suspension): 0%
32 | CCOC(=O)c1cnn(CCN2CCC(c3noc(C(F)(F)F)n3)CC2)c1 [compound 459] | – | – | 0* % | Test C rating (% disease control) ([1]; Rate 50 ppm test suspension): 0%; Test A rating (% disease control) ([2]; Rate 50 ppm test suspension): 0%
33 | O=C(NCC(F)(F)F)c1csc(Cc2ccc(-c3noc(C(F)(F)F)n3)cc2)n1 [compound 463] | 100% | 100% | 65* % | –
34 | COCCNC(=O)c1coc(COc2ccc(-c3noc(C(F)(F)F)n3)cc2)n1 [compound 464] | 23% | 79% | 94* % | –
35 | O=C(NCC(F)(F)F)c1coc(COc2ccc(-c3noc(C(F)(F)F)n3)cc2)n1 [compound 465] | 80% | 100% | 0* % | –
36 | O=C(NCCn1cccn1)c1coc(COc2ccc(-c3noc(C(F)(F)F)n3)cc2)n1 [compound 466] | 55% | 100% | 3* % | –
37 | O=C(NCCC(F)(F)F)c1coc(COc2ccc(-c3noc(C(F)(F)F)n3)cc2)n1 [compound 467] | 68% | 97% | 6* % | –
38 | N#CCNC(=O)c1coc(COc2ccc(-c3noc(C(F)(F)F)n3)cc2)n1 [compound 468] | 0% | 84% | 22* % | –
39 | COCCNC(=O)c1csc(COc2ccc(-c3noc(C(F)(F)F)n3)cc2)n1 [compound 469] | 86% | 96% | 65* % | –
40 | O=C(NCC(F)(F)F)c1csc(COc2ccc(-c3noc(C(F)(F)F)n3)cc2)n1 [compound 470] | 94% | 100% | 0* % | –
